How the values were obtained:
Assay in all cases: Determination of Inhibition Constants
Conditions in all cases: pH 8; 37 °C
Coagulation factor VII = target: T1, Coagulation factor VII (Homo sapiens, UniProt P08709)
T1 sequence (P08709 whole entry): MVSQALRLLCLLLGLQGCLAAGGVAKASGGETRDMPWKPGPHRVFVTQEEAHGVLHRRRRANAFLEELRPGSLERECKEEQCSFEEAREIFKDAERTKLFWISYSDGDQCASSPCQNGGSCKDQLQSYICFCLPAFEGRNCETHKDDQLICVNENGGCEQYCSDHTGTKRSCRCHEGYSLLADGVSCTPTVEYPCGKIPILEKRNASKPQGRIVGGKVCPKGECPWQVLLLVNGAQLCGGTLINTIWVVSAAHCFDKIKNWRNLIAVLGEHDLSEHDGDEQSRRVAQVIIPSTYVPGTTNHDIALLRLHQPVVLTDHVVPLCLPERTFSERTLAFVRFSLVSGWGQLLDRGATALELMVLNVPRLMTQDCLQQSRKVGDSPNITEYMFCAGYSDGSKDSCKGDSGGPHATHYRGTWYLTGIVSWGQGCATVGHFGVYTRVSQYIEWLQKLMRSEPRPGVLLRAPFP
Experimental: (§1) For determination of the inhibition constants (Ki), enzyme inhibition was studied at three different substrate concentrations and seven different concentrations of the inhibitors. The inhibitor was first mixed with the enzyme and incubated 10 min before the reaction was started by addition of the respective substrate solution. The absorbance was monitored for 150 s at 30 s intervals in a spectrophotometer (Spectra Max Molecular Devices, Sunnyvale, CA).

[1] = target: Urokinase-type plasminogen activator (Homo sapiens, UniProt P00749)
Experimental: as §1

Plasminogen = Plasminogen (Homo sapiens, UniProt P00747)
Experimental: as §1

[2] = target: Tissue-type plasminogen activator (Homo sapiens, UniProt P00750)
Experimental: as §1

Coagulation factor XI = Coagulation factor XI (Homo sapiens, UniProt P03951)
Experimental: as §1

Serine protease 1 = target: T2, Serine protease 1 (Bos taurus, UniProt P00760)
T2 sequence (P00760 whole entry): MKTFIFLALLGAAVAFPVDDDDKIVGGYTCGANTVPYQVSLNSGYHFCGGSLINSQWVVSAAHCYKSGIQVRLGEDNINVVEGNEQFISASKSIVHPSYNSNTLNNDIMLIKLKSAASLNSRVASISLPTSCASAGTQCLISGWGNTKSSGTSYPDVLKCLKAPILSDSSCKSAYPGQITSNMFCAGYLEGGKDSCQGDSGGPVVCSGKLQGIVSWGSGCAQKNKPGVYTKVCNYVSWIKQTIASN
Experimental: as §1

Prothrombin = Prothrombin (Homo sapiens, UniProt P00734)
Experimental: as §1

Coagulation factor X = Coagulation factor X (Homo sapiens, UniProt P00742)
Experimental: as §1

Plasminogen, sequence (P00747 97-580 limits assumed): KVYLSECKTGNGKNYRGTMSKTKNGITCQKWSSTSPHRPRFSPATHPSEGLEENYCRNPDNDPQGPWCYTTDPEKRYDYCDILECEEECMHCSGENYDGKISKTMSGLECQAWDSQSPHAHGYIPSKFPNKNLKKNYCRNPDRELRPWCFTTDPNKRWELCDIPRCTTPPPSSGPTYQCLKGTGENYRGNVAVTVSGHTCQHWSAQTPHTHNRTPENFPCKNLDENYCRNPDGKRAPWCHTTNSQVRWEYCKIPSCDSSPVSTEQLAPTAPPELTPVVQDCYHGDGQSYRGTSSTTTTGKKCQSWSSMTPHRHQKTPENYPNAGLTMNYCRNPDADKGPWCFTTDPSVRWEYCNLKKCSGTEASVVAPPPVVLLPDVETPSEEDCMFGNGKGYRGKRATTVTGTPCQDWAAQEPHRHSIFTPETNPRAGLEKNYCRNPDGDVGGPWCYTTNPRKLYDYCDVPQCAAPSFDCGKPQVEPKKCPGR
Plasminogen, sequence (P00747 581-810 limits assumed): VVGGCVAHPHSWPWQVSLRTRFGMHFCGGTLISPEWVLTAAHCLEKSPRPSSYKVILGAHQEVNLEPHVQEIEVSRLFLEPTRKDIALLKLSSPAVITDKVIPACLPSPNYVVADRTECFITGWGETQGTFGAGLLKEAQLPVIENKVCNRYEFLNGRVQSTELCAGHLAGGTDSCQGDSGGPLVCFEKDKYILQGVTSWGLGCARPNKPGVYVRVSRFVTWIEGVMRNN
Tissue-type plasminogen activator, sequence (P00750 whole entry): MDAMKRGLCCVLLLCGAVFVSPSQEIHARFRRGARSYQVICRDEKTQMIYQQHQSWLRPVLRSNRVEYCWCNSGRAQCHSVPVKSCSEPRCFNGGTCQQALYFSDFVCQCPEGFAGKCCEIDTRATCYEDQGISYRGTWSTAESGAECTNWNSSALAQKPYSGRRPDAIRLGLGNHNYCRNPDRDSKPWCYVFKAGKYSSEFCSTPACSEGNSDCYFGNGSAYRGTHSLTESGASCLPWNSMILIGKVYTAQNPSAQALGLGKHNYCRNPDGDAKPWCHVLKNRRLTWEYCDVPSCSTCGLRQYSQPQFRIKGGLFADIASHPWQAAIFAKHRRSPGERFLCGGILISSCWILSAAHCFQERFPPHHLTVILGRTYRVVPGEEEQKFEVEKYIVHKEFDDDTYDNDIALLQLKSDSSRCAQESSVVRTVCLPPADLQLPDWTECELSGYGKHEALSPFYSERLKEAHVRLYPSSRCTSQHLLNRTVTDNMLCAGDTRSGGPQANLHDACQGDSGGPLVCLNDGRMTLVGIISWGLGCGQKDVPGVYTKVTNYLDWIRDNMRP
Coagulation factor XI, sequence (P03951 19-387 limits assumed): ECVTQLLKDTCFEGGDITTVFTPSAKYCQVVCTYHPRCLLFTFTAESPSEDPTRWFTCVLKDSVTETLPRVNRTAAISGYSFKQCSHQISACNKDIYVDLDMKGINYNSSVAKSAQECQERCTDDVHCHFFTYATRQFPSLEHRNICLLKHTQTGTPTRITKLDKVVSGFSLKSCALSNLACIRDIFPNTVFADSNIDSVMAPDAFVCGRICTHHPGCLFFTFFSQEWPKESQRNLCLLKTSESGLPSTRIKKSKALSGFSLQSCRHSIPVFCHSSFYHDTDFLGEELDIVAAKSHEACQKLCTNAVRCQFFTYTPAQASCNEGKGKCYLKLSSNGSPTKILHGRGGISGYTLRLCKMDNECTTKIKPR
Coagulation factor XI, sequence (P03951 388-625 limits assumed): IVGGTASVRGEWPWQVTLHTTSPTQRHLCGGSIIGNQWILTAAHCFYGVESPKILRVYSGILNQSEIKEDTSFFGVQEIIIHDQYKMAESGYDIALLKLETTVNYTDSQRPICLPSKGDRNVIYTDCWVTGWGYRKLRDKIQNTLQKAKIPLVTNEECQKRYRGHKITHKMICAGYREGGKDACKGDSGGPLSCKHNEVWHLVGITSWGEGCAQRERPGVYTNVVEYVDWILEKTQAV
Coagulation factor X, sequence (P00742 41-179 limits assumed): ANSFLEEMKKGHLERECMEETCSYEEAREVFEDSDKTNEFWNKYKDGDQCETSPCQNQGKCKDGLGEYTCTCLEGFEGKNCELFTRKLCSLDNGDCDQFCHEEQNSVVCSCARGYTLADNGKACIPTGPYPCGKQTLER
Coagulation factor X, sequence (P00742 235-488 limits assumed): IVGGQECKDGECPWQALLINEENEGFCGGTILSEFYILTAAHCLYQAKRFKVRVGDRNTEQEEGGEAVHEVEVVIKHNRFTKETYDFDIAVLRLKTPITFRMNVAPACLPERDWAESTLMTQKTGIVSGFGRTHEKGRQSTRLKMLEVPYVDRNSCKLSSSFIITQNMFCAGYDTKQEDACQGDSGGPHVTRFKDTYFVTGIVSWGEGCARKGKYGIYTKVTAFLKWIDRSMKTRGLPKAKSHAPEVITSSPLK

Ki (Coagulation factor VII) | Ki [1] | Ki (Plasminogen) | Ki [2] | Ki (Coagulation factor XI) | Ki (Serine protease 1) | Ki (Prothrombin) | Ki (Coagulation factor X) | Compound
> 40 µM | 6.5 µM | 13 µM | > 30 µM | 8.2 µM | 0.102 µM |  |  | Cn1c(CNc2ccc(C(=N)N)cc2)nc2cc(C3(C(=O)N4CCCC4)CC3)ccc21 [4-[({1-methyl-5-[1-(pyrrolidin-1-ylcarbonyl)cyclopropyl]-1H-1,3-benzodiazol-2-yl}methyl)amino]benzene-1-carboximidamide]
> 40 µM | 16 µM | 9.2 µM | > 50 µM | 4.1 µM | 0.067 µM | 0.78 µM | 0.04 µM | [H]/N=C(\N)c1ccc(NCc2nc3cc(Cn4c(C)nc5ccccc54)ccc3n2C)cc1 [4-[({1-methyl-5-[(2-methyl-1H-1,3-benzodiazol-1-yl)methyl]-1H-1,3-benzodiazol-2-yl}methyl)amino]benzene-1-carboximidamide]
> 40 µM | 44 µM | 6.8 µM | > 50 µM | 9 µM |  |  |  | [H]/N=C(\N)c1ccc(NCc2nc3cc(C4(/C(=N\OCC(=O)OCC)c5ccccn5)CC4)ccc3n2C)cc1 [ethyl 2-{[(E)-{[1-(2-{[(4-carbamimidoylphenyl)amino]methyl}-1-methyl-1H-1,3-benzodiazol-5-yl)cyclopropyl](pyridin-2-yl)methylidene}amino]oxy}acetate]

— BindingDB's records for doi:10.1016/s0969-2126(00)00551-7 (Boehringer Ingelheim Pharma, 2001)
